The test system of the data set is 6C3HED lymphosarcoma. Nature of the data set: animal or person. In kind it is in vivo. The note with it: for inhibition in vivo at 100 mg/kg: read-out: % inhibition of tumor growth, oral, 100 mg/kg, BIDX 8; for inhibition in vivo at 75 mg/kg: read-out: % inhibition of tumor growth, oral, 75 mg/kg, BIDX 8. The method, then:
The compounds were tested in C3H mice bearing a 6C3HED lymphosarcoma, also known as the Gardner lymphosarcoma (GLS), and in a variety of human tumor xenografts in CD1 nu/nu mice, including CX-1, LX-1, HXGC3, and VRC5. The 6C3HED lymphosarcoma was obtained from the Division of Cancer Treatment, National […] Institute, Tumor Bank, maintained at E. G. and G. Mason Research (Worcester, Mass.). The CX-1 human colon carcinoma and the LX-1 human lung carcinoma xenografts were obtained from the National Cancer Institute. The HXGC3 and VRC5 human colon xenografts were obtained from Dr. P. J. Houghton, St. Jude Children's Hospital in Memphis (see Br. J. Cancer, 37, 213 (1978)). First passage tumor was stored in liquid nitrogen using standard techniques. The transplanted tumor was reestablished from the Tumor Bank every six months or as needed. The tumor was maintained by serial passage twice weekly in C3H mice.
In the procedure the tumor was removed from passage animals and minced into 1- to 3-mm square fragments using sterile techniques. Tumor pieces were checked for sterility using both Antibiotic Medium 1 and Brain Heart Infusion (Difco, Detroit, Mich.). Recipient mice were shaved and tumor pieces were implanted subcutaneously in the auxiliary region by trocar. Drug therapy on the appropriate schedule was initiated on the day after tumor implant for 6C3HED and after a seven (7) day delay for xenografts (or other delay as noted in Table 2). The compound being tested was mixed with 2.5% Emulphor EL620 from GAF Corporation (1:40 dilution in saline). Food and water were provided ad libitium. The drug was administered orally in 0.5 ml of 2.5% Emulphor (unless otherwise indicated). The tumor was measured the day after treatment ended with two dimensional measurements (width and length) of the tumor taken using automated digital calipers interfaced to a microcomputer. Approximate weight for the tumor was calculated using the following formula [Worzalla, J. F., et al., Invest. New Drugs, 8, 241 (1990], (tumor weight in mg)=(width in mm)^2 ×(length in mm)/2.
At least one control group of an equal number of mice was treated with the same volume of 2.5% Emulphor only. The percent inhibition was determined by subtracting the ratio of the mean tumor size of the test group relative to the control group from one and multiplying the result times 100.
The results of several experiments in mice bearing a 6C3HED lymphosarcoma (or other tumor where indicated) when the indicated compounds were administered are provided in Table 2. In Table 2, column 1 gives the Example number of the compound used, column 2 lists the dose level in mg/kg, column 3 provides the percent inhibition of tumor growth, column 4 gives the number of mice which died relative to the total number of animals in the group, column 5 gives the method of administration of the compound, and column 6 gives the dosage schedule. The protocol used with other tumors was the same as with the 6C3HED lymphosarcoma.

The mark [1] stands for this setting: Mus musculus, 6C3HED, po, read-out: % inhibition of tumor growth, oral, 150 mg/kg, BIDX 8.
The mark [2] stands for this setting: Mus musculus, 6C3HED, po, read-out: % inhibition of tumor growth, oral, 300 mg/kg, BIDX 8.
Setting [3] is: Mus musculus, 6C3HED, po, read-out: % inhibition of tumor growth, oral, 25 mg/kg, BIDX 8.
Setting [4] is: Mus musculus, 6C3HED, po, read-out: % inhibition of tumor growth, oral, 50 mg/kg, BIDX 8.

Where two headings read alike, the source gives them in different places.

As to `CC(=O)N(C)S(=O)(=NC(=O)Nc1ccc(Cl)cc1)c1ccc(C)c(C)c1` (stereo not shown) [Example 63], for the setting “Mus musculus, 6C3HED, po, read-out: % inhibition of tumor growth, oral, 25 mg/kg, DX 8”, the inhibition in vivo at 25 mg/kg came to 79%. Moreover, the inhibition in vivo at 50 mg/kg (Mus musculus, 6C3HED, po, read-out: % inhibition of tumor growth, oral, 50 mg/kg, DX 8) worked out at 95%. The “Tox/Tot (mice which died / total)” value runs as follows: (oral, 25 mg/kg, DX 8) 0/10; (oral, 50 mg/kg, DX 8) 0/10.
In the case of `Cc1cc(C)cc(S(N)(=O)=NC(=O)Nc2ccc(Cl)cc2)c1` (stereo not shown) [Example 39], the inhibition in vivo at 100 mg/kg (Mus musculus, 6C3HED, po) came out at 44%. Further, the inhibition in vivo at 200 mg/kg (Mus musculus, 6C3HED, po, read-out: % inhibition of tumor growth, oral, 200 mg/kg, BIDX 8) came to 77%. Also, the “Tox/Tot (mice which died / total)” value (oral, 100 mg/kg, BIDX 8) is 0/10 and the “Tox/Tot (mice which died / total)” value (oral, 200 mg/kg, BIDX 8) is given as 0/10.
For `Cc1ccc(S(=O)(=NC(=O)Nc2ccc(Cl)cc2)NCc2ccccc2)cc1` (stereo not shown) [Example 12], the inhibition in vivo at 150 mg/kg under setting [1] came out at 73%. For the same molecule, the inhibition in vivo at 300 mg/kg under setting [2] was 87%. Moreover, the “Tox/Tot (mice which died / total)” value reads like this: (oral, 150 mg/kg, BIDX 8) 0/9; (oral, 300 mg/kg, BIDX 8) 1/10.
In the same order, the values of `Cc1ccc(S(N)(=O)=NC(=O)N(C)c2ccc(Cl)cc2)cc1` (stereo not shown) [Example 20] are 83%, 93%, 0/10 and 0/10.
Take `Cc1ccc(S(=O)(=NC(=O)Nc2ccc(Cl)cc2)NCCCO)cc1` (stereo not shown) [Example 11]: the inhibition in vivo at 150 mg/kg under setting [1] came out at 65%. Further, the inhibition in vivo at 300 mg/kg under setting [2] amounted to 89%. The “Tox/Tot (mice which died / total)” value runs as follows: (oral, 150 mg/kg, BIDX 8) 0/10; (oral, 300 mg/kg, BIDX 8) 2/10.
Consider `Cc1ccc(S(=O)(=NC(C)C)NC(=O)Nc2ccc(Cl)cc2)cc1` (stereo not shown) [Example 6, N-[[(4-chlorophenyl)amino]carbonyl]-N'-(1-methylethyl)-4-methylbenzenesulfonimidamide], for which, where the note is “Mus musculus, 6C3HED, po, read-out: % inhibition of tumor growth, oral, 18.75 mg/kg, BIDX 8”, the inhibition in vivo at 18.75 mg/kg came out at 18%. Also, the inhibition in vivo at 37.5 mg/kg (Mus musculus, 6C3HED, po, read-out: % inhibition of tumor growth, oral, 37.5 mg/kg, BIDX 8) was 60%. Moreover, the inhibition in vivo at 75 mg/kg (Mus musculus, 6C3HED, po) came out at 86%. The inhibition in vivo at 150 mg/kg under setting [1] worked out at 93%. Further, the inhibition in vivo at 300 mg/kg under setting [2] turned out to be 99%. In addition, the “Tox/Tot (mice which died / total)” value (oral, 18.75 mg/kg, BIDX 8) was 0/10; the “Tox/Tot (mice which died / total)” value (oral, 37.5 mg/kg, BIDX 8) was 0/10; the “Tox/Tot (mice which died / total)” value (oral, 75 mg/kg, BIDX 8) is 0/10; the “Tox/Tot (mice which died / total)” value (oral, 300 mg/kg, BIDX 8) is recorded as 2/10. Besides, the “% inhibition of tumor growth” value (oral, 150 mg/kg, BIDX 8) was 99%.
For `Cc1ccc(S(=O)(=NC(=O)Nc2ccc(Cl)cc2)NCCO)cc1` (stereo not shown) [Example 10], the inhibition in vivo at 150 mg/kg (Mus musculus, 6C3HED, po, read-out: % inhibition of tumor growth, oral, 150 mg/kg, DX 8) is 40%. Besides, for the setting “Mus musculus, 6C3HED, po, read-out: % inhibition of tumor growth, oral, 300 mg/kg, DX 8”, the inhibition in vivo at 300 mg/kg was found to be 60%. The “Tox/Tot (mice which died / total)” value runs as follows: (oral, 150 mg/kg, DX 8) 0/10; (oral, 300 mg/kg, DX 8) 0/10.
`CC(=O)N(C(=O)N=[S+]([O-])(c1ccc(C)cc1)N(C)C(C)=O)c1ccc(Cl)cc1` (stereo not shown) [Example 17]: under setting [1], the inhibition in vivo at 150 mg/kg turned out to be 83%. Also, the inhibition in vivo at 300 mg/kg under setting [2] is 96%. Moreover, the “Tox/Tot (mice which died / total)” value by setting is: (oral, 150 mg/kg, BIDX 8) 0/10; (oral, 300 mg/kg, BIDX 8) 0/10.
On to `CNS(=O)(=NC(=O)N(C)c1ccc(Cl)cc1)c1ccc(C)cc1` (stereo not shown) [Example 65], for which the inhibition in vivo at 150 mg/kg under setting [1] worked out at 91%. In addition, the inhibition in vivo at 300 mg/kg under setting [2] is 97%. Further, the “Tox/Tot (mice which died / total)” value is on record as 0/10 (oral, 150 mg/kg, BIDX 8) and 0/10 (oral, 300 mg/kg, BIDX 8).
For `Cc1ccc(S(=O)(=NC(=O)Nc2ccc(Cl)cc2)NCCc2ccccc2)cc1` (stereo not shown) [Example 13], the inhibition in vivo at 150 mg/kg under setting [1] is 39%. The inhibition in vivo at 300 mg/kg under setting [2] came to 48%. Moreover, the “Tox/Tot (mice which died / total)” value was 0/10 (oral, 150 mg/kg, BIDX 8) and 0/10 (oral, 300 mg/kg, BIDX 8).
In the case of `CCc1ccc(S(=N)(=O)NC(=O)Nc2ccc(Cl)cc2)cc1` (stereo not shown) [Example 33, N-[[(4-chlorophenyl)amino]carbonyl]-4-ethylbenzenesulfonimidamide], the inhibition in vivo at 6.25 mg/kg (Mus musculus, 6C3HED, po, read-out: % inhibition of tumor growth, oral, 6.25 mg/kg, BIDX 8) stood at 36%. Moreover, the inhibition in vivo at 12.5 mg/kg (Mus musculus, 6C3HED, po, read-out: % inhibition of tumor growth, oral, 12.5 mg/kg, BIDX 8) was found to be 60%. Moreover, the inhibition in vivo at 25 mg/kg under setting [3] was found to be 91%. Further, the inhibition in vivo at 50 mg/kg under setting [4] was 98%. Moreover, the inhibition in vivo at 100 mg/kg (Mus musculus, 6C3HED, po) turned out to be 99%. Also, under setting [1], the inhibition in vivo at 150 mg/kg stood at 100%. In addition, the inhibition in vivo at 300 mg/kg under setting [2] stood at 100%. Also, the “Tox/Tot (mice which died / total)” value is 0/10 (oral, 6.25 mg/kg, BIDX 8); 0/9 (oral, 12.5 mg/kg, BIDX 8); 2/10 (oral, 25 mg/kg, BIDX 8); 1/10 (oral, 50 mg/kg, BIDX 8); 0/10 (oral, 100 mg/kg, BIDX 8); 8/10 (oral, 150 mg/kg, BIDX 8). For the setting “oral, 300 mg/kg, BIDX 8”, the “Tox/Tot (mice which died / total)” value was 8/10.
On to `Cc1ccc(S(=N)(=O)NC(=O)Nc2ccc(Br)cc2)cc1` (stereo not shown) [Example 22, N-[[(4-bromophenyl)amino]carbonyl]-4-methylbenzenesulfonimidamide], for which, under setting [1], the inhibition in vivo at 150 mg/kg was found to be 100%. The inhibition in vivo at 300 mg/kg under setting [2] amounted to 100%. The “Tox/Tot (mice which died / total)” value is given as 0/10 (oral, 150 mg/kg, BIDX 8) and 3/10 (oral, 300 mg/kg, BIDX 8).
Consider `CC(=O)OCc1ccc(S(=N)(=O)NC(=O)Nc2ccc(Cl)cc2)cc1` (stereo not shown) [Example 49, N-[[(4-chlorophenyl)amino]carbonyl]-4-(acetoxymethyl)benzenesulfonimidamide], for which the “Tox/Tot (mice which died / total)” value is 0/10 (IP, 12.5 mg/kg, DX 8); 0/10 (IP, 25 mg/kg, DX 8); 1/10 (IP, 50 mg/kg, DX 8); 8/10 (IP, 150 mg/kg, DX 8); 10/10 (IP, 300 mg/kg, DX 8); 0/10 (oral, 25 mg/kg, BIDX 8). The “Tox/Tot (mice which died / total)” value by setting is: (oral, 50 mg/kg, BIDX 8) 0/10; (oral, 75 mg/kg, BIDX 8) 0/10; (oral, 150 mg/kg, BIDX 8) 0/10; (oral, 300 mg/kg, BIDX 8) 3/10. For the same molecule, the “% inhibition of tumor growth” value (IP, 300 mg/kg, DX 8) is recorded as “TOX”. Moreover, under “Mus musculus, 6C3HED, ip, read-out: % inhibition of tumor growth, IP, 12.5 mg/kg, DX 8”, the inhibition in vivo at 12.5 mg/kg was 29%. For the same molecule, the inhibition in vivo at 25 mg/kg was determined as 36% (Mus musculus, 6C3HED, ip, read-out: % inhibition of tumor growth, IP, 25 mg/kg, DX 8) and 64% under setting [3]. The inhibition in vivo at 50 mg/kg runs as follows: (Mus musculus, 6C3HED, ip, read-out: % inhibition of tumor growth, IP, 50 mg/kg, DX 8) 63%; under setting [4], 87%. Further, the inhibition in vivo at 150 mg/kg runs as follows: (Mus musculus, 6C3HED, ip, read-out: % inhibition of tumor growth, IP, 150 mg/kg, DX 8) 99%; under setting [1], 99%. Besides, the inhibition in vivo at 75 mg/kg (Mus musculus, 6C3HED, po) stood at 96%. For the same molecule, the inhibition in vivo at 300 mg/kg under setting [2] was determined as 100%.
Turning to `CCCCCCNS(=O)(=NC(=O)Nc1ccc(Cl)cc1)c1ccc(C)cc1` (stereo not shown) [Example 9], the inhibition in vivo at 150 mg/kg under setting [1] was found to be 65%. The inhibition in vivo at 300 mg/kg under setting [2] came to 79%. The “Tox/Tot (mice which died / total)” value (oral, 150 mg/kg, BIDX 8) is recorded as 0/10 and the “Tox/Tot (mice which died / total)” value (oral, 300 mg/kg, BIDX 8) is listed as 2/10.

(Values after patent US5258406A, “Sulfonimidamides” (priority 1992, dated 1993).)
